Laboratory results reported in US10265367B2, “Synergistic antibacterial effects of magnolia bark extract and L-arginine, N-α-lauroyl ethyl ester on plaque biofilm” (WM. WRIGLEY JR. COMPANY, priority 2015, dated 2019).

How the values were obtained:
salivary bacteria = assay: Inhibition of biofilm formation on saliva-precoated pegs (Calgary device), MBIC/FBIC; type: cell-based
Protocol: 80 ml of saliva was collected from 4 donors and centrifuged at 3800 rpm to remove food debris. 15 ml supernatant was removed and mixed with an equal volume of 1×PBS. The mixture was then filter sterilized to collect saliva proteins that were used to precoat suspended pegs in the lid of the Calgary device for 3 hours. Meanwhile, the remaining saliva was centrifuged at 10,000 rpm to collect bacteria for biofilm inoculum. After centrifugation, the pellet was resuspended to an OD600 of 0.05 and premixed with defined concentrations of LAE-CF (99% purity, from Vedeqsa), MBE and a combination of the two actives at predetermined ratios. The actives and inoculum were added to the saliva precoated pegs and incubated overnight for at least 16 hours to allow for biofilm formation. Controls included growth (no actives) and media only (no bacteria).
The efficacy of the LAE and MBE synergistic effects are shown in the minimal biofilm inhibitory concentrations (MBIC) and fractional biofilm inhibitory concentration (FBIC) for the two actives. The FBIC was calculated according to the following formula: FBIC=[QA/Qa+QB/Qb] where
QA=the MBIC of component A combined with component B.
Qa=the MBIC of component A alone.
QB=the MBIC of component B combined with component A.
Qb=the MBIC of component B alone. […]

[1] = tested on: salivary bacteria biofilm; assay: In vitro biofilm assay (salivary bacteria on saliva-treated hydroxyapatite discs); type: cell-based
Protocol: Biofilms were prepared and tested by a modified method from Guggenheim (Guggenheim B., Gierstein E., Schupbach P, Shapiro S., 2001. “Validation of an in vitro biofilm model of supragingival plaque” Journal Dental Research 80:363-370), which is herein incorporated by reference. Briefly, biofilms were grown by incubating salivary bacteria with saliva-treated hydroxyapatite (HA) discs in sterile 24 well cell culture plates. Using media supplemented with saliva (25% total volume), and transferring discs frequently during the growth phase, encouraged growth of a dental plaque-like biofilm. This was developed for up to 72 hours. The biofilm was exposed to the test compositions (set forth in Table 1) three times a day, for five minutes, on days two and three of the experiment. Biofilm was quantified turbidometrically and by spectrophometric absorption at 600 nm.
The number of CFU for each biofilm was determined as follows. After vigorous shaking, 0.1 ml of the liquid from each biofilm cell was pipetted into 10 ml reverse osmosis (RO) H2O (100× dilution). The 100× dilution was shaken, and 0.1 ml was pipetted into 10 ml RO H2O (10,000× dilution). […] After the growth period, the number of colonies of bacteria growing on each plate were counted. […]
The IC40 of MBE was determined, and was used as a positive control concentration.

**Q.** For `CCCCCCCCCCCC(=O)N[C@@H](CCCNC(=N)N)C(=O)OCC` [LAE, L-arginine, N^α-lauroyl ethyl ester], which “FBIC (fractional biofilm inhibitory concentration)” value (salivary bacteria; FBIC=QA/Qa+QB/Qb, <1 synergistic) is on record?
**A.** Its value is 1.

**Q.** What about the “MBIC (minimal biofilm inhibitory concentration)” value (salivary bacteria; active alone, overnight at least 16 hours) of the same compound?
**A.** The value was 125 ppm.

**Q.** What about the inhibition at 1000 ppm ([1]; 5 min, 1000 ppm, biofilm exposed 5 min three times a day on days 2 and 3) of the same compound?
**A.** Its inhibition at 1000 ppm is 82%.

**Q.** What about the “percent inhibition compared to the positive control” value ([1]; positive control = MBE at IC40) of the same compound?
**A.** The value was “not better than the positive control”.
